Reference: paper PMC8812735, “Discovery of triterpenoids as potent dual inhibitors of pancreatic lipase and human carboxylesterase 1” (Journal of Enzyme Inhibition and Medicinal Chemistry, 2022)

Tests used:
[1] = target: T1, hCES1A (Homo sapiens, UniProt P23141); assay: Inhibition of hCES1A-mediated NLMe hydrolysis in human liver microsomes; format: biochemical; details: for Inhibition mode hCES1A / Ki / IC50: NLMe substrate, HLM; for Ki: Lineweaver–Burk second plot; for IC50: mean ± SD (n = 3), read-out: IC50 (µM) hCES1A; for Reversibility of hCES1A inhibition: dose-response curves not affected by pre-incubation times
T1 construct: tissue Bioreclamation IVT lot No. X008067; host or cells: pooled human liver microsomes from 50 donors
T1 sequence (P23141 18-567): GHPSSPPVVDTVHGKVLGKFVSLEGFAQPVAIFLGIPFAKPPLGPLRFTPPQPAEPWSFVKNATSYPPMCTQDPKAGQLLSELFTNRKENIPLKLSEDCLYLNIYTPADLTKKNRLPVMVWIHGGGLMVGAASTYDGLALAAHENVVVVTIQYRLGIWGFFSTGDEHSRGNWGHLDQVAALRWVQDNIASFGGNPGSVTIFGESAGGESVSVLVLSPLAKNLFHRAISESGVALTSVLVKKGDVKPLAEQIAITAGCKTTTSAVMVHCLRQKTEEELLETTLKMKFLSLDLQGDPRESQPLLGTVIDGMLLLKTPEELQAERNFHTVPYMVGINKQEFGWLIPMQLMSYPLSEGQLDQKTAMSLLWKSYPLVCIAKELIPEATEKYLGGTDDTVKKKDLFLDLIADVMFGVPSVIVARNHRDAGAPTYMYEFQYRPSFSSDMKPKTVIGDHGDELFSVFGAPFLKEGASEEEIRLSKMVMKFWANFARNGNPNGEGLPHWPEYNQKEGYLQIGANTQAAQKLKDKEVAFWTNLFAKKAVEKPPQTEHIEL
Method: N-Alkylated D-luciferin methyl ester (NLMe), a Specific probe for hCES1A[45], was used for assessing the inhibitory effects for triterpenoids, and BNPP was used as a positive inhibitor of hCES1A. […] Then NLMe (2 µL, 0.15 mM) was added to start the reaction. After shaking the reaction in 37 °C incubator for 10 min, 50 µL of reaction solution was removed and mixed with LDR (50 µL) to terminate the reaction. A multi-mode microplate reader was used to detect the luminescence signal of NL (the hydrolysed metabolite of NLMe). The luminescence product of NL was measured at 580 nm (gain: 140). The final volume ratio of DMSO was less than 1% (V/V).
Subsequently, various concentrations of substrates (selected according to Km) and different concentrations of inhibitors were used to determine the corresponding reaction rate, and the second slope graph of the Lineweaver–Burk diagram was used as a function of the inhibitor to calculate the corresponding inhibition constant (Ki) value. All kinetic data were fitted by the following kinetic equations (a–c), for competitive (a), non-competitive (b) and mixed inhibition (c): (a) V=(VmaxS)/[Km(1+I/Ki)+S] (b) V=(VmaxS)/[(Km+S)×(1+I/Ki)] (c) V=(VmaxS)/[(Km+S)×(1+I/αKi)] where V is the hydrolytic velocity of the reaction, Vmax is the maximum velocity. S and I are substrate (4-MUO, NLMe) and inhibitor (compound 39/41) concentrations, respectively. Ki is the inhibition constant of the tested inhibitor against the target PL and hCES1A; Km is the Michaelis constant (the substrate concentration at half of the Vmax).
All measurements were made in triplicate and the data obtained in the experiment were shown as mean ± SD. The IC50 and Ki values of the compounds with strong inhibitory effect were evaluated by nonlinear regression with graphpad prism 7.0 software (GraphPad Software, Inc., La Jolla, CA).

[2] = target: T2, Butyrylcholinesterase (BuChE) (Homo sapiens, UniProt P06276); assay: Inhibition of BuChE-mediated BTCH hydrolysis; format: biochemical
T2 construct: from tissue; host or cells: human serum
Method: To assay the inhibitory effects of triterpenoids on Butyrylcholinesterase (BuChE), butyrylthiocholine (BTCH) was used as a substrate for BuChE, The total volume of the system was 100 µL. Including 2 µL DMSO/inhibitor, 2 µL human serum, 84 µL buffered PBS (pH 7.4, 0.1 M), 10 µL substrate iodised butyrylthiocholine (0.3 mM, final concentration) and 2 µL developer 5–5′-dithiobis(2-nitrobenzoic acid) (DTNB) (1 mM, final concentration). The assay protocol of […] was depicted previously. All measurements were performed in triplicates.

T2 sequence (P06276 29-602): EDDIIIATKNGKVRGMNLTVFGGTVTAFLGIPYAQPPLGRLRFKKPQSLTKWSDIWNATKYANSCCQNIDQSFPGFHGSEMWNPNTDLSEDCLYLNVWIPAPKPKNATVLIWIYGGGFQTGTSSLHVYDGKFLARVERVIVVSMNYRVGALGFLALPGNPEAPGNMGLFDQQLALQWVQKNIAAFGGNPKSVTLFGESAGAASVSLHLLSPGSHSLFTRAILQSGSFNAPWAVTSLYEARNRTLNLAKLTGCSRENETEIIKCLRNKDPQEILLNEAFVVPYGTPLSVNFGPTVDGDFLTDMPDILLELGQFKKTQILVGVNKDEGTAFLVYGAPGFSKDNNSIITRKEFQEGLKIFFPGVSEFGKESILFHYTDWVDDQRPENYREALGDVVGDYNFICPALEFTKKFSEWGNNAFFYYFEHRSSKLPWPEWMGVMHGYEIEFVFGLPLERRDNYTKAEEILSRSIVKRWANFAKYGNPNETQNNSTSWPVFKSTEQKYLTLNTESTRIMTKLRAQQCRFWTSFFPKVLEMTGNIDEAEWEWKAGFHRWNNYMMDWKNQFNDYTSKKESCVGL

| SMILES | Inhibition mode hCES1A [1] | Ki [1] | IC50 [1] | Reversibility of hCES1A inhibition [1] | IC50 [2] |
| --- | --- | --- | --- | --- | --- |
| CC1(C)CCC2(C(=O)O)CCC3(C)C(=CCC4C5(C)C=C(O)C(=O)C(C)(C)C5CCC43C)C2C1 (stereo not shown) [Compound 39] | Competitive | 0.043 µM | 0.055 ± 0.006 µM | reversible inhibitors | > 100000 nM |
| CC(=O)OC1CCC2(C)C(CCC3(C)C2CC=C2C4C(C)C(C)CCC4(C(=O)O)CCC23C)C1(C)C (stereo not shown) [Compound 41] | Competitive | 0.019 µM | 0.014 ± 0.002 µM | reversible inhibitors | > 100000 nM |
